The values that follow come from US6482810B1, “Antibiotic composition for inhibition of angiogenesis” (priority 1991, dated 2002).

Series [1] concerns tumor-induced angiogenesis (VX2 carcinoma) in the rabbit cornea. Nature of the series: Rabbit cornea angiogenesis assay with VX2 carcinoma and controlled release polymers. The note with it: for factor of decrease of tumor-induced angiogenesis: versus empty polymer.
Series [2] relates to angiogenesis in the cornea. To be noted: rabbit, in vivo.
Series [3] relates to angiogenesis in the cornea. Nature of the series: Drug-containing polymers implanted alone in the cornea. To be noted: polymer without tumor in the cornea.

Read-outs that look alike come from different tables or passages of the source.

Consider `CC(=O)OCC(=O)[C@@]1(O)CC[C@H]2[C@@H]3CCC4=CC(=O)CC[C@]4(C)[C@H]3C(=O)C[C@@]21C` [cortisone, cortisone acetate], for which, in series [1] (controlled release from EVAc polymer, 7, 14 and 21 days, P<0.05), the “inhibition of tumor angiogenesis (angiogenesis index)” value is “significantly inhibited”. In series [2], the “angiogenesis induced by polymer implanted alone” value (shortened to “angiogenesis induced”) is “did not induce angiogenesis”.
Consider `CN(C)c1ccc(O)c2c1C[C@H]1C[C@H]3[C@H](N(C)C)C(O)=C(C(N)=O)C(=O)[C@@]3(O)C(O)=C1C2=O` [minocycline], for which the results for the “factor of decrease of tumor-induced angiogenesis” value in series [1] (7 days after implantation), in series [1] (14 days after implantation) and in series [1] (21 days after implantation) were 4.5, 4.4 and 2.9, respectively. In addition, the “angiogenesis induced” value in series [3] is “did not induce angiogenesis”.
In the case of heparin, the “angiogenesis induced” value in series [3] was “promote a mild angiogenic response”.
